Source: ChEMBL document CHEMBL3046777, “Synthesis of new phenylcarbamoylbenzoic acid derivatives and evaluation of their in vitro antioxidant activity” (Med Chem Res, 2012)

Test: Antioxidant activity assessed as […] by ABTS-spectrophotometric assay
Assay type: functional
Design: concentration or dose not given beside the values
Conditions: dose or concentration not given here

Row | SMILES | inhibition [%]
1 | C/C(=N\N=C(/C)c1ccc(NC(=O)c2ccccc2C(=O)O)cc1)c1ccccc1 | 9.85
2 | COc1ccc(/C=N/NC(=O)c2ccc(NC(=O)c3ccccc3C(=O)O)cc2)cc1 | 4.29
3 | O=C(N/N=C/c1ccc(Cl)cc1)c1ccc(NC(=O)c2ccccc2C(=O)O)cc1 | 19.5
4 | COc1ccc(/C=N/N=C(\C)c2ccc(NC(=O)c3ccccc3C(=O)O)cc2)cc1 | 23
5 | C/C(=N\N=C\c1ccc(Cl)cc1)c1ccc(NC(=O)c2ccccc2C(=O)O)cc1 | 24.8
6 | O=C(N/N=C/c1ccccc1)c1ccc(NC(=O)c2ccccc2C(=O)O)cc1 | 8.78
7 | CC(=O)c1ccc(NC(=O)c2ccccc2C(=O)O)cc1 | 7.42
8 | C/C(=N\N1C(=O)c2ccccc2C1=O)c1ccc(NC(=O)c2ccccc2C(=O)O)cc1 | 4.19
9 | CCOC(=O)c1ccc(NC(=O)c2ccccc2C(=O)O)cc1 | 4.09
10 | NNC(=O)c1ccc(NC(=O)c2ccccc2C(=O)O)cc1 | 55.2
11 | C/C(=N\NC(=O)c1ccc(NC(=O)c2ccccc2C(=O)O)cc1)c1ccc(NC(=O)c2ccccc2C(=O)O)cc1 | 9.95
12 | O=C(NN1C(=O)c2ccccc2C1=O)c1ccc(NC(=O)c2ccccc2C(=O)O)cc1 | 8.39
13 | C/C(=N\N)c1ccc(NC(=O)c2ccccc2C(=O)O)cc1 | 18.2
14 | C/C(=N\N=C\c1ccccc1)c1ccc(NC(=O)c2ccccc2C(=O)O)cc1 | 12.9
15 | C/C(=N\NC(=O)c1ccc(NC(=O)c2ccccc2C(=O)O)cc1)c1ccccc1 | 2.63
16 | C/C(=N\N=C(/C)c1ccc(NC(=O)c2ccccc2C(=O)O)cc1)c1ccc(NC(=O)c2ccccc2C(=O)O)cc1 | 10.6
